Two compounds from patent publication US20260240843A1, “PHARMACEUTICAL COMPOSITION AND USE THEREOF” (priority 2023, published 2026) can be followed below.

The test system of assay [1] is human ovarian cancer OVCAR3 cell xenograft tumor. The note with it: PLD 3 mg/kg i.v. qw x 3 w; for tumor growth inhibition (in words): (I-1) 100 mg/kg p.o. qd x 21 d. The source says: A total of 56 immunodeficient mice were subcutaneously injected with 10×10^6 OVCAR3 cells to establish a xenograft tumor model. Tumor-bearing mice with uniform tumors were randomly grouped into different treatment groups based on tumor volume, with 6 mice in each group.
Tumor cells: OVCAR3; 10×10^6 cells+Matrigel gel/mouse. A total of 56 mice were inoculated. 24 tumor-bearing mice with relatively uniform tumors were selected and randomly divided into 4 experimental groups, with 6 mice in each group.
(§1) Under sterile conditions, a xenograft tumor model was established by subcutaneous injection of tumor cells into the right dorsal side of immunodeficient mice. When the tumor reached an appropriate size (100 mm^3 to 200 mm^3), the animals were randomly grouped by randomized block method based on the tumor volume of the animals, the tumor volume difference of each group should be less than 20% of the mean value, with 6 to 7 animals in each group, and administration was started on the day of grouping (i.e., d1). The body weight and tumor size of the animals were measured twice a week during the experiment. The clinical symptoms were observed and recorded daily. At the end of administration or at the end of the experiment.
(§2) The tumor volume (TV) was calculated as follows: TV=a×b^2/2, where a and b represent the measured length and width of the tumor, respectively.
(§3) The relative tumor volume (RTV) was calculated as follows: RTV=Vt/V1, where V1 represents the tumor volume at the time of grouping and administration (day 1), and Vt represents the tumor volume at the time of measurement.
(§4) The synergy score was calculated using the following formula (Clarke R, 1997):
(§5) [formula] • where A represents response to drug A; B represents response to drug B; C represents response to vehicle control; AB represents response to combination treatment with A and B.
(§6) The antitumor growth curves of the test substances were plotted by taking the X-axis as the treatment time (day) and the corresponding tumor volume (mean value) as the Y-axis. […] All data were statistically analyzed using SPSS (Statistical Product and Service Solutions) software (version 18.0, IBM, Armonk, NY, U.S.). Graphing was performed using Prism version 6 (GraphPad Software Inc., San Diego, CA).
(§7) For combination treatment, a synergy score of <1 indicated antagonistic effect, a synergy score of =1 indicated additive effect, and a synergy score of >1 indicated synergistic effect.

Assay [2] shares this test system. The conditions noted are these: doxorubicin hydrochloride 3 mg/kg i.v. qw x 4 w; for tumor growth inhibition (in words): (I-1) 100 mg/kg p.o. qd x 28 d; for RTV on day 29 after administration (mean value ± standard error) / T/C (%) on day 29 after administration: day 29, (I-1) 100 mg/kg p.o. qd x 28 d.
Source text: A total of 71 immunodeficient mice were subcutaneously injected with 10×10^6 OVCAR3 cells to establish a xenograft tumor model. Tumor-bearing mice with uniform tumors were randomly grouped into different treatment groups based on tumor volume, with 7 mice in each group.
Tumor cells: OVCAR3; 10×10^6 cells+Matrigel gel/mouse. A total of 71 mice were inoculated. 28 tumor-bearing mice with relatively uniform tumors were selected and randomly divided into 4 experimental groups, with 7 mice per group.
as §1, §2, §3, §4, §5, §6, §7

The subject of assay [3] is mouse ovarian cancer ID8 cells. The experiment in a line: Murine ovarian cancer ID8 cell intraperitoneal model, combination with PLD. The class given is in vivo, mouse (C57BL/6). The protocol: A total of 90 C57BL/6 mice were intraperitoneally injected with 15×10^6 ID8 cells to establish an ovarian cancer intraperitoneal model.
The body weight and tumor volume of the animals were measured twice or thrice a week during the experiment. The clinical symptoms were observed and recorded daily. After the administration was completed, the abdominal girth, body weight, and survival time of the mice were continuously observed until all the animals were subjected to euthanasia.
The tumor volume (TV) was measured using an IVIS imaging system, and the total luminescence value (Total flux) of each mouse was calculated under the same measurement area.
The animals were euthanized according to animal welfare principles when the body weight loss of the animals exceeded 20%, disease progression or moribund state was observed, the tumor burden exceeded 10% of the animal's body weight, the abdominal girth exceeded 100 mm, or the body weight exceeded 30 g.
Graphing was performed using Prism version 9 (GraphPad Software Inc., San Diego, CA), and the survival time and ascites production time were analyzed using the log-rank test.

[4] abbreviates: day 22, (I-1) 100 mg/kg p.o. qd x 21 d.

Structures can show the parent of a compound that is named as a salt. Where two headings read alike, the source gives them in different places.

Take `COc1cccc2c1C(=O)c1c(O)c3c(c(O)c1C2=O)C[C@@](O)(C(=O)CO)C[C@@H]3O[C@H]1C[C@H](N)[C@H](O)[C@H](C)O1` [Doxorubicin hydrochloride, reference compound]: the “tumor growth inhibition (in words)” value in assay [1] is “moderate tumor growth inhibition”. For the same compound, in assay [2], the “tumor growth inhibition (in words)” value was “moderate tumor growth inhibition”, the “RTV on day 29 after administration (mean value ± standard error)” value stood at 8.88 ± 1.19 and the “T/C (%) on day 29 after administration” value came out at 70.50%.

For the compound `Cc1cc(Nc2ncc(Cl)c(Nc3ccccc3S(=O)(=O)C(C)C)n2)c(OC(C)C)cc1C1=CCN(C2CCOCC2)CC1` [Compound represented by formula (I-1)], in assay [3] (compared with the solvent control group (combination also vs. monotherapy groups)), the “survival time of the mice (in words)” value is “prolonged”. Moreover, the “T/C on day 22” value in assay [3] (day 22, (I-1) 100 mg/kg p.o. qd x 21 d, PLD 3 mg/kg i.v. qw x 3 w) is given as 37.49%. The “T/C (%) on day 36 after administration” value in assay [3] (day 36, (I-1) 100 mg/kg p.o. qd x 21 d, PLD 3 mg/kg i.v. qw x 3 w) is 97.13%. The “RTV on day 36 after administration (mean value ± standard error)” value in assay [3] (day 36, in vivo imaging (Total flux), (I-1) 100 mg/kg p.o. qd x 21 d, PLD 3 mg/kg i.v. qw x 3 w) turned out to be 4.72 ± 1.35. In addition, the “tumor growth inhibition (in words)” value in assay [1] was “moderate tumor growth inhibition”. In assay [1] (setting [4]), the “RTV on day 22 after administration (mean value ± standard error)” value is recorded as 7.42 ± 1.06 and the “T/C (%) on day 22 after administration” value is 72.77%. In addition, in assay [2], the “tumor growth inhibition (in words)” value is “moderate tumor growth inhibition”, the “RTV on day 29 after administration (mean value ± standard error)” value came out at 7.95 ± 1.31 and the “T/C (%) on day 29 after administration” value was determined as 63.15%.
